Counter-ions that a name gives are not always drawn.
Columns and labels:
Assay type in all cases: biochemical
[1] = test system: noradrenaline (NA) reuptake in synaptosomes; assay: Inhibition of 3H-NA reuptake in synaptosomes; conditions: read-out: NA-uptake IC50
Experimental: (§1) Compounds were tested for their ability to inhibit the reuptake of the monoamine neurotransmitters dopamine (DA) noradrenaline (NA) and serotonine (5-HT) in synaptosomes as described in WO 97/16451 (NeuroSearch A/S).
(§2) The test values are given as IC50 (the concentration (μM) of the test substance which inhibits the specific binding of ^3H-DA, ^3H-NA, or ^3H-5-HT by 50%).

[2] = test system: serotonine (5-HT) reuptake in synaptosomes; assay: Inhibition of 3H-5-HT reuptake in synaptosomes; conditions: read-out: 5-HT-uptake IC50
Experimental: as §1, §2

[3] = test system: dopamine (DA) reuptake in synaptosomes; assay: Inhibition of 3H-DA reuptake in synaptosomes; conditions: read-out: DA-uptake IC50
Experimental: as §1, §2

SMILES	IC50 [1]	IC50 [2]	IC50 [3]
COc1ccc2sc(C3=CC4CCC(C3)N4)cc2c1 (stereo not drawn) [Compound 2.1, 3-(5-Methoxy-benzo[b]thiophen-2-yl)-8-aza-bicyclo[3.2.1]oct-2-ene hydrochloric acid salt]	57 nM	2.5 nM	740 nM
Oc1ccc2sc(C3=CC4CCC(C3)N4)cc2c1 (stereo not drawn) [Compound 3.1, 2-(8-Aza-bicyclo[3.2.1]oct-2-en-3-yl)-benzo[b]thiophen-5-ol hydrochloric acid salt]	4.3 nM	0.37 nM	94 nM

From patent US8633218B2, “8-azabicyclo[3.2.1]oct-2-ene derivatives and their use as monoamine neurotransmitter re-uptake inhibitors” (Aniona APS, priority 2008, dated 2014)
